Laboratory results from patent publication US20210095322A1, “HIGH-PURITY STEVIOL GLYCOSIDES” (PureCircle USA Inc., priority 2018, published 2021).
Where two headings read alike, the source gives them in different places.

Columns and labels:
[1] = Isosweet determination (2-AFC) vs sucrose in acidified water, sweetness potency; assay type: in vivo, human; conditions: pH = 3.2
Experimental: As an example, Reb AM was evaluated.

[2] = Solubility characteristics and solution stability in water; assay type: physicochemical; conditions: for Solubility: summary of solution stability in water
Experimental: Solubility characteristics were measured as follows. Prepare the following solutions in water and stir at 700 rpm for each. Add heat if necessary at 2 minutes and 30 seconds of stirring. Using a stopwatch, determine how long it takes all powder to dissolve completely and record the temperature at which it dissolves. The following table summarizes the solubility characteristics of Rebaudiosides D, M, and AM.

[3] = FEMA GRAS publication; cited from earlier work
[4] = Sweetness perception threshold (FEMA method, 2-AFC vs 1.5% sugar) in neutral water; assay type: in vivo, human; conditions: for % Frequency / PC (paired comparison count, panelists choosing the sample as sweeter): 2-AFC, n = 30
Experimental: A series of experiments were performed to evaluate the effect of Reb AM on taste and flavor profile. The sweetness and taste/flavor modification can influence each other in food and beverage applications. To determine the influence of the taste and flavor modification in different applications, the FEMA (Flavor and Extract Manufacturing Association) prescribes a sensory method that determines the sweetness perception threshold determination presented in Experiment 1, which is discussed below.
Experiment 1 provides the estimate of Reb AM concentration in water that barely contributes to sweetness perception. […] The summary of sweetness perception threshold for selected steviol glycosides is below in Table 11.
Therefore we selected 50 ppm of Reb AM as the recognition threshold concentration.

[5] = Flavor modification of chocolate flavored dairy protein shake, sensory panel; assay type: in vivo, human; parameters: Sweet Intensity mean score / Bitterness mean score / Metallic Note mean score / Cocoa Flavor mean score / Dairy Note mean score / Whey Protein Note mean score / Vanilla Note mean score / Sweet Aftertaste mean score / Bitter Aftertaste mean score / Overall Liking mean score: scale not given here
From the text: Thirty trained panelists evaluated two samples of chocolate flavored dairy protein shake for overall acceptance and attribute intensities (cocoa flavor, dairy note, whey protein, vanilla, metallic, sweetness, bitterness and aftertaste). The two samples included: 1) no sugar added “Control” sample containing 300 ppm PureCircle Reb A and 2) no sugar added “Test” sample containing 300 ppm PureCircle Reb A and 50 ppm Reb AM. The objective of the test was to determine if the addition of Reb AM affects the flavor profile of a milk product.
The test objective is to determine if the flavor profile and overall acceptance of a control sample of dairy beverage application differs from a Test sample of the same beverage containing Reb AM.

[6] = Taste panel of no-calorie Lemon-lime carbonated soft drink; assay type: in vivo, human; conditions: 500 ppm in Lemon-lime CSD
From the text: A group of trained and experienced taste panel members evaluated no-calorie Lemon-lime carbonated soft drink (CSD) sweetened with 500 ppm of Reb AM, Reb D, or Reb M samples.

[7] = Flavor modification of Raspberry Watermelon Coconut Water, sensory panel; assay type: in vivo, human; parameters: Sweet Intensity mean score / Bitter Intensity mean score / Astringency mean score / Coconut Flavor mean score / Watermelon Flavor mean score / Raspberry Flavor mean score / Artificial/Chemical Note mean score / Sweet Aftertaste mean score / Bitter Aftertaste mean score / Overall Liking mean score: scale not given here
From the text: Thirty panel members evaluated two samples of raspberry watermelon flavored coconut water for overall acceptance and attribute intensities (sweetness, Raspberry flavor, watermelon flavor, coconut water flavor, saltiness, bitterness, and sweet aftertaste, bitter aftertaste) in two sessions. In session one, the two samples included: 1) store-bought Raspberry Watermelon Coconut Water control sample and 2) store-bought Raspberry Watermelon Coconut Water test sample containing Reb AM. The objective of the test was to determine if the addition of Reb AM affects the flavor profile of a non-alcoholic beverage.
The test objective is to determine if the flavor profile and overall acceptance of a Control sample of flavored coconut water differs from a Test sample of the same beverage containing Reb AM.

[8] = 1.5% Sucrose vs 30 ppm Reb AM in neutral water
[9] = 1.5% Sucrose vs 50 ppm Reb AM in neutral water
[10] = 1.5% Sucrose vs 70 ppm of Reb AM in neutral water
[11] = 1.5% Sucrose vs 100 ppm Reb AM in neutral water
[12] = 50 ppm Reb AM added to shake with 300 ppm Reb A, 95% confidence
[13] = NSA Chocolate Vanilla Protein Dairy Shake w Reb A & 50 ppm Reb AM, 30 panelists
[14] = 50 ppm Reb AM in coconut water, 95% confidence
[15] = Coconut water (raspberry/watermelon flavor) with 50 ppm of Reb AM, 30 panelists

## C=C1C[C@@]23CC[C@H]4[C@@](C)(CCC[C@@]4(C)C(=O)O[C@@H]4O[C@H](CO)[C@@H](O)[C@H](O[C@@H]5O[C@H](CO)[C@@H](O)[C@H](O)[C@H]5O)[C@H]4O[C@@H]4O[C@H](CO)[C@@H](O)[C@H](O)[C@H]4O)[C@@H]2CC[C@]1(O[C@@H]1O[C@H](CO)[C@@H](O)[C@H](O[C@@H]2O[C@H](CO)[C@@H](O)[C@H](O)[C@H]2O)[C@H]1O[C@@H]1O[C@H](CO)[C@@H](O)[C@H](O)[C@H]1O)C3 [Reb M, rebaudioside M]
[1]; 2.5% SE
  Sweetness Equivalent (ppm) in Water: 84 ppm
  Sweetness Potency in Water: 298 x sugar equivalent
[1]; 5.0% SE
  Sweetness Equivalent (ppm) in Water: 209 ppm
  Sweetness Potency in Water: 239 x sugar equivalent
[1]; 7.5% SE
  Sweetness Equivalent (ppm) in Water: 418 ppm
  Sweetness Potency in Water: 179 x sugar equivalent
[1]; 10.0% SE
  Sweetness Equivalent (ppm) in Water: 832 ppm
  Sweetness Potency in Water: 90 x sugar equivalent
[2]; Test Conc. 0.1%
  Comment on solubility: Easily Soluble
  Dissolution in water (Heated), time: No heat needed
  Dissolution water (Ambient), time of agitation: 12 minutes of
  Solution after 24 hrs: Clear
  Solution after 48 hrs: Clear
[2]; Test Conc. 0.3%
  Comment on solubility: Moderately
  Dissolution in water (Heated), temperature: Heated to 99 deg C. deg. C.
  Solution after 24 hrs: Clear
  Solution after 48 hrs: Slight
[2]; Test Conc. 0.5%
  Comment on solubility: Requires
  Dissolution in water (Heated), temperature: 87 deg. C. with
  Dissolution in water (Heated), time: agitation. 16 min
  Solution after 24 hrs: Moderate
[2]
  Solubility: 0.3%
[3]
  Sweetness Perception Threshold Concentration: 24 ppm

## OC[C@H]1O[C@@](CO)(O[C@H]2O[C@H](CO)[C@@H](O)[C@H](O)[C@H]2O)[C@@H](O)[C@@H]1O [Sucrose]
[4]; [8]
  % Frequency: 96.7%
  PC (paired comparison count, panelists choosing the sample as sweeter): 29
[4]; [9]
  % Frequency: 76.7%
  PC (paired comparison count, panelists choosing the sample as sweeter): 23
[4]; [10]
  % Frequency: 30%
  PC (paired comparison count, panelists choosing the sample as sweeter): 9
[4]; [11]
  % Frequency: 10%
  PC (paired comparison count, panelists choosing the sample as sweeter): 3

## C=C1C[C@@]23CC[C@H]4[C@@](C)(CCC[C@@]4(C)C(=O)O[C@@H]4O[C@H](CO)[C@@H](O)[C@H](O[C@@H]5O[C@H](CO)[C@@H](O)[C@H](O)[C@H]5O)[C@H]4O[C@@H]4O[C@H](CO)[C@@H](O)[C@H](O)[C@H]4O)[C@@H]2CC[C@]1(O[C@@H]1O[C@H](CO)[C@@H](O)[C@H](O)[C@H]1O[C@@H]1O[C@H](CO)[C@@H](O)[C@H](O)[C@H]1O)C3 [Reb AM, Rebaudioside AM]
[1]; 2.5% SE
  Sweetness Equivalent (ppm) in Water: 150 ppm
  Sweetness Potency in Water: 167 x sugar equivalent
[1]; 5.0% SE
  Sweetness Equivalent (ppm) in Water: 365 ppm
  Sweetness Potency in Water: 137 x sugar equivalent
[1]; 7.5% SE
  Sweetness Equivalent (ppm) in Water: 869 ppm
  Sweetness Potency in Water: 86 x sugar equivalent
[1]; 10.0% SE
  Sweetness Equivalent (ppm) in Water: 1750 ppm
  Sweetness Potency in Water: 57 x sugar equivalent
[5]; 50 ppm Reb AM added to shake with 300 ppm Reb A
  impact on sweetness intensity: no significant impact
[5]; [12]
  bitter aftertaste vs control: lower
  bitterness vs control: significantly lower
  cocoa flavor vs control: significantly higher
  dairy notes vs control: significantly higher
  metallic note vs control: significantly lower
  overall liking vs control: significantly higher
  vanilla flavor vs control: significantly higher
  whey protein vs control: significantly lower
[5]; [13]
  Bitter Aftertaste mean score: 0.77
  Bitterness mean score: 1.46
  Cocoa Flavor mean score: 4.55
  Dairy Note mean score: 4.59
  Metallic Note mean score: 1.48
  Overall Liking mean score: 5.59
  Sweet Aftertaste mean score: 1.65
  Sweet Intensity mean score: 5.98
  Vanilla Note mean score: 2.52
  Whey Protein Note mean score: 4.32
[4]; [8]
  % Frequency: 3.3%
  PC (paired comparison count, panelists choosing the sample as sweeter): 1
[4]; [9]
  % Frequency: 23.3%
  PC (paired comparison count, panelists choosing the sample as sweeter): 7
[4]; [10]
  % Frequency: 70%
  PC (paired comparison count, panelists choosing the sample as sweeter): 21
[4]; [11]
  % Frequency: 90%
  PC (paired comparison count, panelists choosing the sample as sweeter): 27
[4]; 50 ppm in water
  Sweetness perception compared with 1.5% sugar solution: significantly lower
[4]; neutral water, vs 1.5% sugar solution
  Sweetness Perception Threshold Concentration: 50 ppm
[6]
  bitterness compared to CSD with Reb D or Reb M: significantly less
  sweetness compared to CSD with Reb D or Reb M: less sweet
  sweetness lingering compared to CSD with Reb D or Reb M: significantly less
[2]; Test Conc. 1%
  Comment on solubility: Easily Soluble
  Dissolution in water (Heated): No heat needed
  Dissolution water (Ambient), stirring time: Stirred for 3 min
  Solution after 24 hrs: Clear
  Solution after 48 hrs: Clear
[2]; Test Conc. 5%
  Comment on solubility: Easily Soluble
  Dissolution in water (Heated), temperature: 45 C.
  Solution after 24 hrs: Clear
  Solution after 48 hrs: Clear
[2]; Test Conc. 10%
  Comment on solubility: Moderately
  Dissolution in water (Heated), temperature: 54 C.
  Solution after 24 hrs: Clear
  Solution after 48 hrs: Slight
[2]
  Solubility: 10%
[2]; water
  Solubility compared with other steviol glycosides: significantly higher solubility than other minor and major steviol glycosides
[7]; 50 ppm Reb AM in coconut water, 90% confidence
  sweet aftertaste intensity vs control: significantly lower
[7]; [14]
  coconut water flavor vs control: significantly higher
  mango peach flavor vs control: significantly higher
  overall liking vs control: significantly higher
  watermelon flavor vs control: significantly higher
[7]; [15]
  Artificial/Chemical Note mean score: 2.55
  Astringency mean score: 1.10
  Bitter Aftertaste mean score: 0.29
  Bitter Intensity mean score: 0.24
  Coconut Flavor mean score: 5.11
  Overall Liking mean score: 5.04
  Raspberry Flavor mean score: 0.95
  Sweet Aftertaste mean score: 1.33
  Sweet Intensity mean score: 4.44
  Watermelon Flavor mean score: 4.41
